Key:
COX-1 = COX-1 over COX-2; cited from earlier work
COX-2 = biological target: T1, COX-2 (Homo sapiens, UniProt P35354); test: Fluorometric COX-2 inhibitor screening kit; assay type: biochemical
T1 construct: purchased Abcam, UK
T1 sequence (P35354 18-604): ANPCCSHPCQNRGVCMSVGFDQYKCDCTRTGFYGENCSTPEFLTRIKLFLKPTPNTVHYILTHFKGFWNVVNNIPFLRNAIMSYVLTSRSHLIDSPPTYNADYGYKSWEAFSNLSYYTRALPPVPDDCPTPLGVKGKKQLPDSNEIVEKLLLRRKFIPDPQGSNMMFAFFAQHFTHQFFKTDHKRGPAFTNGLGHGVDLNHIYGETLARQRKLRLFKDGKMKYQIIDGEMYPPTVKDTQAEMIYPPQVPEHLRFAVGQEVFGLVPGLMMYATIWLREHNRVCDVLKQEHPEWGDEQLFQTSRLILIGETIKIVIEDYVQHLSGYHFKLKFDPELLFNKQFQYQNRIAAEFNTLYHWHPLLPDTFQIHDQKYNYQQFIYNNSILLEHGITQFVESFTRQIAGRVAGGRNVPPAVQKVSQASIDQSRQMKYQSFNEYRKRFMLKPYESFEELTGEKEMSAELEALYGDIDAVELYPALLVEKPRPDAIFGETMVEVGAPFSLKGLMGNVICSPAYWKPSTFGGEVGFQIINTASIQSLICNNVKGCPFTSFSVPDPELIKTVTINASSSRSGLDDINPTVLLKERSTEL
Procedure: (§1) COX-2 and 5-LOX inhibitory activities were tested using fluorometric COX-2 and 5-LOX inhibitor screening kits (Abcam, UK). These assays are based on the fluorometric detection of Prostaglandin G2 (a product generated by the COX enzyme) or on the fluorometric detection of intermediate generated by the 5-LOX enzyme. The experiments were conducted according to the manufacturers’ instructions.
(§2) For the determination of COX-2 inhibitory activity, tested compounds were dissolved in DMSO (5 mM stock solutions) and then diluted with the same solvent to obtain test solutions. Test solutions were further diluted 5X with COX assay buffer (2 µL of test solution and 8 µL COX assay buffer). […] Solvent control (SC) was prepared by adding 2 µL DMSO and 8 µL COX assay buffer, while sample (S) and enzyme control (EC) were prepared by adding 10 µL of diluted test solution and COX assay buffer, respectively, into assigned wells. For the determination of 5-LOX inhibitory activity, tested compounds were also dissolved in DMSO to prepare stock solutions with the same concentration (5mM), which were then diluted with the same solvent to obtain test solutions. Subsequently, test solutions were added to corresponding wells (2 µL).

[1] = tested on: carrageenan-induced rat paw edema; test: Carrageenan-induced rat paw edema model; assay type: in vivo, Wistar albino rats; settings: for Rat paw thickness: mean ± SD; for inhibition in vivo at 2.5 mg/kg / inhibition in vivo at 5 mg/kg / inhibition in vivo at 10 mg/kg: Rattus norvegicus, po
Procedure: In vivo assessment of anti-inflammatory activity of compounds 1–7 was conducted in the carrageenan-induced rat paw edema model. Inflammation in all rats was induced by an intraplantar injection of […] of 0.5% carrageenan saline in the left hind paw. Two hundred male Wistar albino rats (180–210 g) were divided into seven experimental (n = 168 rats, 8 rats per subgroup) and two control groups (n = 32 rats, 8 rats per subgroup).
Experimental groups involved rats that received compounds 1–7, and they were divided into three subgroups: rats received compounds 1–7 per os in three doses (2.5 mg/kg, 5 mg/kg, and 10 mg/kg) dissolved in 1% DMSO for 60 min before inducing inflammation.
In order to quantify the anti-inflammatory effect, the thickness of the left paw tissue of each rat was measured at the following time intervals: immediately before inducing inflammation (moment 0) and 1, 2, 3, and 4 h (moments 1, 2, 3, and 4) after inflammation. Tissue thickness was measured in the middle of the rat paw using a digital vernier caliper (Aerospace, Beijing, China).

5-LOX = biological target: T2, 5-LOX (Homo sapiens, UniProt P09917); test: Fluorometric 5-LOX inhibitor screening kit; assay type: biochemical; settings: at 10 µM; mean ± standard error of two measurements; read-out: 5-LOX Percent of Inhibition
T2 construct: purchased Abcam, UK
T2 sequence (P09917 1-674): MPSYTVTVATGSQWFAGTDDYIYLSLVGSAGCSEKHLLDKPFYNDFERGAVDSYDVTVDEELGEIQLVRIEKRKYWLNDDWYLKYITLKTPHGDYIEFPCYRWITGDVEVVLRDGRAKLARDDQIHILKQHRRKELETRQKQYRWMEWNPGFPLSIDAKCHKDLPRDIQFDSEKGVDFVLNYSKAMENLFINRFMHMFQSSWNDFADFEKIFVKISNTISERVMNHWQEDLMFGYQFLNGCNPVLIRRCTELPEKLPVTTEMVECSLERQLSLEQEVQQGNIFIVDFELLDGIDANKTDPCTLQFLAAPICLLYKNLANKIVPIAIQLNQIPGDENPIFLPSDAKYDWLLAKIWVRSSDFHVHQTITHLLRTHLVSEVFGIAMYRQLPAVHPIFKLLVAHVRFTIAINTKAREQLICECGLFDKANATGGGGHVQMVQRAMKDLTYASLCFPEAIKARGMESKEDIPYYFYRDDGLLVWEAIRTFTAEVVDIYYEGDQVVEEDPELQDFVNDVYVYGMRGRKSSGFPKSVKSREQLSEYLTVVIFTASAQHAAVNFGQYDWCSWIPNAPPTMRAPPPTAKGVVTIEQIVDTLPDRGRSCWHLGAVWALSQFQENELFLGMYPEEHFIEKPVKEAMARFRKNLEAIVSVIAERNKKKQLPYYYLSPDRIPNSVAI
Procedure: as §1, §2

**Q.** Which results are given for `COc1ccc2cc([C@H](C)C(=O)O)ccc2c1` [Naproxen, reference compound]?
**A.** Selectivity for COX-1 (COX-1): approximately five; IC50 (COX-2): 200 ± 20 nM; inhibition at 10 µM (COX-2; read-out: COX-2 Percent of Inhibition): 72.2 ± 1.4%; Rat paw thickness ([1]; 2.5 mg/kg per os, 1 h after carrageenan): 6.20 ± 0.10 mm; Rat paw thickness ([1]; 2.5 mg/kg per os, 2 h after carrageenan): 5.87 ± 0.12 mm; Rat paw thickness ([1]; 2.5 mg/kg per os, 3 h after carrageenan): 5.60 ± 0.17 mm; Rat paw thickness ([1]; 2.5 mg/kg per os, 4 h after carrageenan): 5.03 ± 0.25 mm; Rat paw thickness ([1]; 5.0 mg/kg per os, 1 h after carrageenan): 5.87 ± 0.23 mm; Rat paw thickness ([1]; 5.0 mg/kg per os, 2 h after carrageenan): 5.37 ± 0.31 mm; Rat paw thickness ([1]; 5.0 mg/kg per os, 3 h after carrageenan): 5.07 ± 0.35 mm; Rat paw thickness ([1]; 5.0 mg/kg per os, 4 h after carrageenan): 4.83 ± 0.21 mm; Rat paw thickness ([1]; 10.0 mg/kg per os, 1 h after carrageenan): 5.73 ± 0.20 mm; Rat paw thickness ([1]; 10.0 mg/kg per os, 2 h after carrageenan): 5.40 ± 0.40 mm; Rat paw thickness ([1]; 10.0 mg/kg per os, 3 h after carrageenan): 5.20 ± 0.30 mm; Rat paw thickness ([1]; 10.0 mg/kg per os, 4 h after carrageenan): 4.80 ± 0.40 mm; inhibition in vivo at 2.5 mg/kg ([1]; 1 h, 2.5 mg/kg per os, 1 h after carrageenan): 18.9%; inhibition in vivo at 5 mg/kg ([1]; 1 h, 5.0 mg/kg per os, 1 h after carrageenan): 27.1%; inhibition in vivo at 10 mg/kg ([1]; 1 h, 10.0 mg/kg per os, 1 h after carrageenan): 35.4%; inhibition in vivo at 2.5 mg/kg ([1]; 2 h, 2.5 mg/kg per os, 2 h after carrageenan): 24.9%; inhibition in vivo at 5 mg/kg ([1]; 2 h, 5.0 mg/kg per os, 2 h after carrageenan): 41.8%; inhibition in vivo at 10 mg/kg ([1]; 2 h, 10.0 mg/kg per os, 2 h after carrageenan): 43.3%; inhibition in vivo at 2.5 mg/kg ([1]; 3 h, 2.5 mg/kg per os, 3 h after carrageenan): 25.1%; inhibition in vivo at 5 mg/kg ([1]; 3 h, 5.0 mg/kg per os, 3 h after carrageenan): 47.1%; inhibition in vivo at 10 mg/kg ([1]; 3 h, 10.0 mg/kg per os, 3 h after carrageenan): 45.2%; inhibition in vivo at 2.5 mg/kg ([1]; 4 h, 2.5 mg/kg per os, 4 h after carrageenan): 44.8%; inhibition in vivo at 5 mg/kg ([1]; 4 h, 5.0 mg/kg per os, 4 h after carrageenan): 49.4%; inhibition in vivo at 10 mg/kg ([1]; 4 h, 10.0 mg/kg per os, 4 h after carrageenan): 56.3%

**Q.** Which inhibition at 10 µM (5-LOX) does the source give for `CC(c1cc2ccccc2s1)N(O)C(N)=O` (stereo not shown) [Zileuton, reference compound] here?
**A.** 64.85 ± 0.39%
